Reference: patent US20160030407A1, “Method of Treating Inflammatory Lung Disease” (priority 2010, published 2016)
Values joined by “and” are separate entries in the source; they are usually repeats but may differ in a detail not shown here. Equal values may be shown once. “Also recorded” adds a separate entry of the source.

What was measured:
[1] = Single i.v. dose toxicity: coagulation (aPTT, PT); assay type: in vivo, Sprague-Dawley rats; details: for ACTIVE PARTIAL THROMBOPLASTIN TIME: nicotine 0.75 mg/kg single i.v. dose, tartrate
Text: (§1) On day 15, urine was collected on all surviving animals for urinalysis. The animals were euthanized and bled via cardiac puncture. Blood was collected for hematology, clinical chemistry, and coagulation analysis. Tissues were collected, weighed, and stored in 10% neutral-buffered formalin for possible future analysis.

[2] = Single i.v. dose toxicity: urinalysis; assay type: in vivo, Sprague-Dawley rats; details: rat; day 15 after single i.v. dose
Text: as §1

[3] = Single i.v. dose toxicity: hematology; assay type: in vivo, Sprague-Dawley rats
Text: as §1

[4] = Single i.v. dose toxicity: body weights and food consumption; assay type: in vivo, Sprague-Dawley rats; details: for Average Daily Food Consumption per Rat: Nicotine 0.75 mg/kg; for Mean weight increase by day 14: single i.v. 0.75 mg/kg nicotine
Description: (§2) Body weight and food consumption was measured daily for 14 days. On day 15, urine was collected on all surviving animals. The animals were euthanized and bled via cardiac puncture, and blood was collected for analysis. Tissues were collected, weighed, evaluated for gross abnormalities, and stored in 10% neutral-buffered formalin.
All animals were observed daily.

nAChR α7 = molecular target: T1, nAChR α7 (Homo sapiens, UniProt P36544); test: nAChR α7 channel agonist assay (FLIPR); assay type: cell-based; details: in presence of PNU-120596; maximal stimulation not achieved
T1 construct: host or cells: CHO cells coexpressing RIC-3
T1 sequence (P36544 23-502): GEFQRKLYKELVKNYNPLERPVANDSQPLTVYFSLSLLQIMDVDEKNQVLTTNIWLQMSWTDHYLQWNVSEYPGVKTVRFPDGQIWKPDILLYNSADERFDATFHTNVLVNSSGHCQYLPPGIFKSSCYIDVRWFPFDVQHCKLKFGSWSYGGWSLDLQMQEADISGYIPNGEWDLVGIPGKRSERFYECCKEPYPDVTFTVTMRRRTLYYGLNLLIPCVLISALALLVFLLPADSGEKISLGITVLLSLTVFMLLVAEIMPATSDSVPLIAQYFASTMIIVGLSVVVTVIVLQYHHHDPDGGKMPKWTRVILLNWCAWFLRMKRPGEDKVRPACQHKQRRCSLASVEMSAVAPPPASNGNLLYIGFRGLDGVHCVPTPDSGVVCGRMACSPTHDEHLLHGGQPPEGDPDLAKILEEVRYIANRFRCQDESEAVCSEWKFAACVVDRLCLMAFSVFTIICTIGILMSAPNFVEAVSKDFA
Description: Briefly, cells were incubated with […] dye for 30 min at 37° C.
Therefore, the assay of agonist activity for either Ach or for the test articles was conducted in the presence of the positive allosteric modulator.

[5] = Physical signs after single i.v. dose (Example 3); assay type: in vivo, Sprague-Dawley rats; details: rat, nicotine 0.4 mg/kg, anatabine 0.10, 0.75, 1.0 mg/kg, tartrate
Description: Four aliquots of each dose level formulation were collected and stored at −80° C. The test compound, corresponding dose level, number of animals, and sample collection times for Phase I of the study are shown in Table 3. The test compound, corresponding dose level, number of animals, and sample collection times for Phase II of the study are shown in Table 4. The physical signs of each animal were monitored following administration of the test compound.

[6] = Single i.v. dose toxicity: necropsy observations and organ weights; assay type: in vivo, Sprague-Dawley rats
Description: as §2, §1

[7] = 0.75 mg/kg nicotine, female rats, individual animals
[8] = 0.75 mg/kg nicotine, female rats, individual animals, tartrate
[9] = 0.75 mg/kg nicotine, male rats, individual animals
[10] = 0.75 mg/kg nicotine, male rats, individual animals, tartrate
[11] = 0.75 mg/kg, gender F, group mean
[12] = 0.75 mg/kg, gender M, group mean
[13] = Group E: Nicotine 0.75 mg/kg (Females), individual animals, tartrate
[14] = Group E: Nicotine 0.75 g/kg Males), individual animals, tartrate
[15] = female animals, Nicotine 0.75 mg/kg, n = 3
[16] = male rats, single i.v. 0.75 mg/kg nicotine, day 15

SMILES: CN1CCCC1c1cccnc1.O=C(O)C(O)C(O)C(=O)O (single isomer, unassigned; (-)) [Nicotine, (−) Nicotine hydrogen tartrate, reference compound]
- aPTT vs vehicle control ([1]; male and female rats, nicotine 0.75 mg/kg): significantly lower relative to the vehicle control group
- ACTIVE PARTIAL THROMBOPLASTIN TIME ([1]; female rats, individual animals E6, E9): 15 s
- ACTIVE PARTIAL THROMBOPLASTIN TIME ([1]; male rats, individual animals E1, E2, E3, E5): 15 s
- urinalysis parameters vs controls [2]: no notable differences in any of the urinalysis parameters
- ANISOCYTOSIS [3, 7]: SLIGHT
- BASOPHIL [3, 7]: 0%
- EOSINOPHIL [3, 7]: 0%
- POLYCHROMASIA [3, 7]: SLIGHT
- LYMPHOCYTE [3, 8]: 83% and 87% and 89%
- MCHC [3, 8]: 34%
- MONOCYTE [3, 8]: 2% and 1% and 0%
- NEUTROPHILSEG [3, 8]: 15% and 12% and 11%
- RE[…] [3, 8]: 5.8% and 4.9% and 4.5%
- ANISOCYTOSIS [3, 9]: SLIGHT
- BASOPHIL [3, 9]: 0%
- EOSINOPHIL [3, 9]: 0%
- POLYCHROMASIA [3, 9]: SLIGHT
- HCT [3, 10]: 50%
- LYMPHOCYTE [3, 10]: 86% and 87% and 80% and 90%
- MONOCYTE [3, 10]: 2% (3×) and 4%
- NEUTROPHILSEG [3, 10]: 12% and 11% and 16% and 8%
- RE[…] [3, 10]: 4.3% and 4.8% and 5.6% and 6.1%
- BASOPHIL [3, 11]: 0.0%
- EOSINOPHIL [3, 11]: 0.0%
- HGB [3, 11]: 16.0 g/dL
- MONOCYTE [3, 11]: 1.0%
- PLATELET COUNT [3, 11]: 1.363e+06 µL⁻¹
- RBC [3, 11]: 8e+06 µL⁻¹
- RE[…] [3, 11]: 5.1%
- WBC [3, 11]: 10200 µL⁻¹
- BASOPHIL [3, 12]: 0.0%
- EOSINOPHIL [3, 12]: 0.0%
- MCHC [3, 12]: 34.0%
- MONOCYTE [3, 12]: 2.5%
- PLATELET COUNT [3, 12]: 1.3558e+06 µL⁻¹
- RBC [3, 12]: 7.6e+06 µL⁻¹
- RE[…] [3, 12]: 5.2%
- WBC [3, 12]: 11400 µL⁻¹
- mean corpuscular volume (MCV) and mean corpuscular hemoglobin (MCH) vs control ([3]; female rats, […] anatabine, 0.75 mg/kg nicotine i.v.): small, but statistically significant decreases
- Average Daily Food Consumption per Rat ([4]; Female, day 6, cages 1 and 2, tartrate): 20.0 grams
- Average Daily Food Consumption per Rat ([4]; Males, day 8, cages 1 and 2, tartrate): 24.0 grams
- day 13 B.W. ([4]; individual male rats, single i.v. 0.75 mg/kg, tartrate, 0.75 mg/kg): 330 g
- B.W. day 6 ([4]; nicotine 0.75 mg/kg single i.v. dose, day 6, male rats (individual animals), tartrate): 270 g
- Mean weight increase by day 14 ([4]; female rats): 40.8 g
- Mean weight increase by day 14 ([4]; male rats, listed as nicotine, tartrate, 0.75 mg/kg): significantly lower than the controls
- Mean weight increase by day 14 ([4]; male rats, tartrate, 0.75 mg/kg): 98.5 g
- agonist activity (nAChR α7): showed agonist activity
- physical signs post dose [5]: experienced tremors immediately post dose; also recorded: experienced labored breathing
- Tissue Collection Weights: Heart [6, 13]: 0.83 g
- Tissue Collection Weights: Lungs [6, 13]: 1.20 g
- Tissue Collection Weights: Ovaries/uterus [6, 13]: 0.92 g
- Tissue Collection Weights: Small intestine [6, 13]: 0.41 g and 0.40 g and 0.28 g
- Tissue Collection Weights: Spleen [6, 13]: 0.46 g (2×) and 0.76 g
- Tissue Collection Weights: Thymus [6, 13]: 0.54 g and 0.48 g (2×)
- Tissue Collection Weights: Brain [6, 14]: 1.90 g
- Tissue Collection Weights: Heart [6, 14]: 1.20 g
- Tissue Collection Weights: Prostate [6, 14]: 0.41 g and 0.28 g (2×) and 0.45 g
- Tissue Collection Weights: Small intestine [6, 14]: 0.71 g and 0.56 g and 0.53 g and 0.40 g
- Tissue Collection Weights: Spleen [6, 14]: 0.81 g and 0.62 g and 0.78 g and 0.86 g
- Tissue Collection Weights: Thymus [6, 14]: 0.54 g and 0.46 g and 0.56 g and 0.76 g
- Organ Weight Brain, Mean [6, 15]: 1.86 g
- Organ Weight Heart, Mean [6, 15]: 0.99 g
- Organ Weight Kidneys, Mean [6, 15]: 2.31 g
- Organ Weight Liver, Mean [6, 15]: 9.59 g
- Organ Weight Lungs, Mean [6, 15]: 1.32 g
- Organ Weight Ovaries/uteris, Mean [6, 15]: 1.28 g
- Organ Weight, Small intestine (mean) [6, 15]: 0.36 g
- Organ Weight, Spleen (mean) [6, 15]: 0.56 g
- Organ Weight, Thymus (mean) [6, 15]: 0.50 g
- Organ Weight, Prostate (mean) [6, 16]: 0.36 g
- Organ Weight, Small intestine (mean) [6, 16]: 0.55 g
- Organ Weight, Spleen (mean) [6, 16]: 0.77 g
- Organ Weight, Thymus (mean) [6, 16]: 0.58 g
- organ weights vs vehicle controls ([6]; nicotine 0.75 mg/kg, heart, liver and kidneys in males, thymus and heart in females): significantly lower than those of the corresponding vehicle controls
